Results: PubChem BioAssay (NCI)
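Dose response: 5 concentrations. Exposure: 48 h. Format: 96-well plates. Endpoint: linear interpolation; highest concentration if not reached. At the GI50, growth is halved. Definition used: TGI = concentration required for complete inhibition of growth.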

Assays:
Experiment in all cases: inhibition of tumour cell growth, NCI panel, 48 h
786-0 renal = test system: 786-0 renal
A498 renal = test system: A498 renal
A549 NSCLC = test system: A549 NSCLC
ACHN renal = test system: ACHN renal
BT-549 breast = test system: BT-549 breast
CAKI-1 renal = test system: CAKI-1 renal
CCRF-CEM leukemia = test system: CCRF-CEM leukemia
COLO 205 colon = test system: COLO 205 colon
DU-145 prostate = test system: DU-145 prostate
EKVX NSCLC = test system: EKVX NSCLC
HCC-2998 colon = test system: HCC-2998 colon
HCT-116 colon = test system: HCT-116 colon
HCT-15 colon = test system: HCT-15 colon
HL-60(TB) leukemia = test system: HL-60(TB) leukemia
HOP-62 NSCLC = test system: HOP-62 NSCLC
HS 578T breast = test system: HS 578T breast
HT29 colon = test system: HT29 colon
IGROV1 ovarian = test system: IGROV1 ovarian
K-562 leukemia = test system: K-562 leukemia
KM12 colon = test system: KM12 colon
LOX IMVI melanoma = test system: LOX IMVI melanoma
M14 melanoma = test system: M14 melanoma
MALME-3M melanoma = test system: MALME-3M melanoma
MCF7 breast = test system: MCF7 breast
MDA-MB-231 breast = test system: MDA-MB-231 breast
MDA-MB-435 = test system: MDA-MB-435
MOLT-4 leukemia = test system: MOLT-4 leukemia
NCI-H226 lung = test system: NCI-H226 lung
NCI-H23 lung = test system: NCI-H23 lung

CC(=O)C1=C(O)C=C2Oc3c(C(=O)/C=C/c4cc(Cl)cc(Cl)c4)c(O)c(C)c(O)c3[C@]2(C)C1=O showed a GI50 (786-0 renal) of 0.534 µM, a TGI (786-0 renal) of 2.32 µM and a GI50 (A498 renal) of 0.259 µM. It also gave a TGI (A498 renal) of 0.5 µM, a GI50 (A549 NSCLC) of 0.566 µM and a TGI (A549 NSCLC) of 2.98 µM. It also gave a GI50 (ACHN renal) of 0.513 µM, a TGI (ACHN renal) of 14.2 µM and a GI50 (BT-549 breast) of 0.395 µM. It also gave a TGI (BT-549 breast) of 0.961 µM, a GI50 (CAKI-1 renal) of 0.502 µM and a TGI (CAKI-1 renal) of 4.19 µM. The GI50 (CCRF-CEM leukemia) was 0.498 µM, the TGI (CCRF-CEM leukemia) was 2.65 µM and the GI50 (COLO 205 colon) was 0.408 µM. The TGI (COLO 205 colon) was 0.988 µM, the GI50 (DU-145 prostate) was 0.622 µM and the TGI (DU-145 prostate) was 5.58 µM. The GI50 (EKVX NSCLC) was 0.444 µM, the TGI (EKVX NSCLC) was 2.27 µM and the GI50 (HCC-2998 colon) was 0.667 µM. The TGI (HCC-2998 colon) was 2.69 µM, the GI50 (HCT-116 colon) was 0.465 µM and the TGI (HCT-116 colon) was 1.38 µM. It also gave a GI50 (HCT-15 colon) of 0.539 µM, a TGI (HCT-15 colon) of 2.54 µM and a GI50 (HL-60(TB) leukemia) of 0.371 µM. It also gave a TGI (HL-60(TB) leukemia) of 0.87 µM, a GI50 (HOP-62 NSCLC) of 0.48 µM and a TGI (HOP-62 NSCLC) of 1.67 µM. For the same molecule, the GI50 (HS 578T breast) was 0.641 µM, the TGI (HS 578T breast) was 3.89 µM and the GI50 (HT29 colon) was 0.47 µM. For the same molecule, the TGI (HT29 colon) was 1.56 µM, the GI50 (IGROV1 ovarian) was 0.673 µM and the TGI (IGROV1 ovarian) was 4.69 µM. The GI50 (K-562 leukemia) was 0.497 µM, the TGI (K-562 leukemia) was 15 µM and the GI50 (KM12 colon) was 0.46 µM. For the same molecule, the TGI (KM12 colon) was 1.76 µM, the GI50 (LOX IMVI melanoma) was 0.512 µM and the TGI (LOX IMVI melanoma) was 1.79 µM. The GI50 (M14 melanoma) was 0.567 µM, the TGI (M14 melanoma) was 2.28 µM and the GI50 (MALME-3M melanoma) was 0.335 µM. It also gave a TGI (MALME-3M melanoma) of 0.739 µM, a GI50 (MCF7 breast) of 0.458 µM and a TGI (MCF7 breast) of 1.72 µM. It also gave a GI50 (MDA-MB-231 breast) of 0.541 µM, a TGI (MDA-MB-231 breast) of 1.85 µM and a GI50 (MDA-MB-435) of 0.493 µM. The TGI (MDA-MB-435) was 1.87 µM, the GI50 (MOLT-4 leukemia) was 0.409 µM and the TGI (MOLT-4 leukemia) was 1.33 µM. It also gave a GI50 (NCI-H226 lung) of 1.21 µM, a TGI (NCI-H226 lung) of 5.49 µM and a GI50 (NCI-H23 lung) of 0.5 µM.
